# Tests used:
# Type in all cases: in vivo
# Set-up in all cases: key: 0 is no effect; 10 is complete control
# [1] = test system: giant foxtail (Setaria faberii); assay: Test B pre-/postemergence
# Summary of the method: (§1)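 Seeds were planted and sprayed preemergence, while plants at 2 to 18 cm (1- to 4-leaf stage) were sprayed postemergence at the same time, with test chemical in a non-phytotoxic solvent mixture containing surfactant. After twelve to sixteen days in a greenhouse, injury was rated visually against untreated controls on a 0–10 scale.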
# [2] = test system: purple nutsedge (Cyperus rotundus); assay: Test B pre-/postemergence
# Summary of the method: as §1
# [3] = test system: bedstraw (Galium aparine); assay: Test B pre-/postemergence
# Summary of the method: as §1
# corn (Zea mays) = assay: Test B pre-/postemergence
# Summary of the method: as §1
# rape (Brassica napus) = assay: Test B pre-/postemergence
# Summary of the method: as §1
# [4] = test system: wheat (Triticum aestivum); assay: Test B pre-/postemergence
# Summary of the method: as §1
# [5] = test system: velvetleaf (Abutilon theophrasti); assay: Test B pre-/postemergence
# Summary of the method: as §1
# soybean (Glycine max) = assay: Test B pre-/postemergence
# Summary of the method: as §1
# [6] = test system: sugar beet (Beta vulgaris); assay: Test B pre-/postemergence
# Summary of the method: as §1
# [7] = test system: crabgrass (Digitaria sanguinalis); assay: Test B pre-/postemergence
# Summary of the method: as §1
# wild oat (Avena fatua) = assay: Test B pre-/postemergence
# Summary of the method: as §1
# [8] = test system: bamyardgrass (Echinochloa crus-galli); assay: Test B flood test; settings: for Plant response rating, Barnyardgrass: Postemergence (flood test species)
# Summary of the method: (§2)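 Plants were grown to the 2-leaf stage before treatment with test chemical, then held in a greenhouse for twelve to sixteen days. Injury was visually rated against untreated controls on a 0–10 scale, where 0 is no effect and 10 is complete control.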
# rice (Oryza sativa) = assay: Test B flood test; settings: for Plant response rating, Rice: Postemergence (flood test species)
# Summary of the method: as §2
# [9] = test system: duck salad (Heteranthera limosa); assay: Test B flood test; settings: for Plant response rating, Ducksalad: Postemergence (flood test species)
# Summary of the method: as §2
# [10] = test system: smallflower flatsedge (Cyperus difformis); assay: Test B flood test; settings: for Plant response rating, S. Flatsedge: Postemergence (flood test species)
# Summary of the method: as §2
# [11] = Preemergence, Rate 62 g/ha, scale of 0 to 10
# [12] = Rate 62 g/ha, Postemergence (flood test)
# [13] = Rate 125 g/ha, Postemergence section (flood test species)
structure (smiles),measurement,setting,value
Cc1cnc(-c2ccc(C(F)(F)F)cc2)nc1C(=O)c1ccc(C(F)(F)F)cc1 [Compound 74],"Plant response rating, Giant foxtail",[1]; [11],0
same,Giant foxtail plant response rating,"[1]; Rate 62 g/ha, Postemergence",0
same,Giant foxtail plant response rating,"[1]; Rate 125 g/ha, Postemergence",0
same,"Plant response rating, Giant foxtail","[1]; Rate 125 g/ha, Preemergence",0
same,"Plant response rating, Giant foxtail","[1]; Rate 250 g/ha, Postemergence",1
same,"Plant response rating, Giant foxtail","[1]; Rate 250 g/ha, Preemergence",0
same,"Plant response rating, Giant foxtail","[1]; Rate 500 g/ha, Postemergence",1
same,"Plant response rating, Giant foxtail","[1]; Rate 500 g/ha, Preemergence",0
same,"Plant response rating, Nutsedge",[2]; [11],0
same,Nutsedge plant response rating,"[2]; Rate 62 g/ha, Postemergence",0
same,Nutsedge plant response rating,"[2]; Rate 125 g/ha, Postemergence",0
same,"Plant response rating, Nutsedge","[2]; Rate 125 g/ha, Preemergence",0
same,"Plant response rating, Nutsedge","[2]; Rate 250 g/ha, Postemergence",0
same,"Plant response rating, Nutsedge","[2]; Rate 250 g/ha, Preemergence",0
same,"Plant response rating, Nutsedge","[2]; Rate 500 g/ha, Preemergence",0
same,"Plant response rating, Bedstraw",[3]; [11],0
same,Bedstraw plant response rating,"[3]; Rate 62 g/ha, Postemergence",1
same,Bedstraw plant response rating,"[3]; Rate 125 g/ha, Postemergence",1
same,"Plant response rating, Bedstraw","[3]; Rate 125 g/ha, Preemergence",0
same,"Plant response rating, Bedstraw","[3]; Rate 250 g/ha, Postemergence",2
same,"Plant response rating, Bedstraw","[3]; Rate 250 g/ha, Preemergence",0
same,"Plant response rating, Bedstraw","[3]; Rate 500 g/ha, Postemergence",6
same,"Plant response rating, Bedstraw","[3]; Rate 500 g/ha, Preemergence",0
same,"Plant response rating, Corn",corn (Zea mays); [11],0
same,Corn plant response rating,"corn (Zea mays); Rate 62 g/ha, Postemergence",1
same,Corn plant response rating,"corn (Zea mays); Rate 125 g/ha, Postemergence",1
same,"Plant response rating, Corn","corn (Zea mays); Rate 125 g/ha, Preemergence",0
same,"Plant response rating, Corn","corn (Zea mays); Rate 250 g/ha, Postemergence",1
same,"Plant response rating, Corn","corn (Zea mays); Rate 250 g/ha, Preemergence",0
same,"Plant response rating, Corn","corn (Zea mays); Rate 500 g/ha, Postemergence",1
same,"Plant response rating, Corn","corn (Zea mays); Rate 500 g/ha, Preemergence",0
same,"Plant response rating, Rape",rape (Brassica napus); [11],0
same,Rape plant response rating,"rape (Brassica napus); Rate 62 g/ha, Postemergence",1
same,Rape plant response rating,"rape (Brassica napus); Rate 125 g/ha, Postemergence",1
same,"Plant response rating, Rape","rape (Brassica napus); Rate 125 g/ha, Preemergence",0
same,"Plant response rating, Rape","rape (Brassica napus); Rate 250 g/ha, Postemergence",1
same,"Plant response rating, Rape","rape (Brassica napus); Rate 250 g/ha, Preemergence",0
same,"Plant response rating, Rape","rape (Brassica napus); Rate 500 g/ha, Postemergence",3
same,"Plant response rating, Rape","rape (Brassica napus); Rate 500 g/ha, Preemergence",0
same,"Plant response rating, Wheat",[4]; [11],0
same,Wheat plant response rating,"[4]; Rate 62 g/ha, Postemergence",1
same,Wheat plant response rating,"[4]; Rate 125 g/ha, Postemergence",1
same,"Plant response rating, Wheat","[4]; Rate 125 g/ha, Preemergence",0
same,"Plant response rating, Wheat","[4]; Rate 250 g/ha, Postemergence",1
same,"Plant response rating, Wheat","[4]; Rate 250 g/ha, Preemergence",0
same,"Plant response rating, Wheat","[4]; Rate 500 g/ha, Postemergence",2
same,"Plant response rating, Wheat","[4]; Rate 500 g/ha, Preemergence",0
same,"Plant response rating, Velvetleaf",[5]; [11],0
same,Velvetleaf plant response rating,"[5]; Rate 62 g/ha, Postemergence",1
same,Velvetleaf plant response rating,"[5]; Rate 125 g/ha, Postemergence",1
same,"Plant response rating, Velvetleaf","[5]; Rate 125 g/ha, Preemergence",0
same,"Plant response rating, Velvetleaf","[5]; Rate 250 g/ha, Postemergence",2
same,"Plant response rating, Velvetleaf","[5]; Rate 250 g/ha, Preemergence",0
same,"Plant response rating, Velvetleaf","[5]; Rate 500 g/ha, Postemergence",2
same,"Plant response rating, Velvetleaf","[5]; Rate 500 g/ha, Preemergence",0
same,"Plant response rating, Soybean",soybean (Glycine max); [11],0
same,Soybean plant response rating,"soybean (Glycine max); Rate 62 g/ha, Postemergence",2
same,Soybean plant response rating,"soybean (Glycine max); Rate 125 g/ha, Postemergence",2
same,"Plant response rating, Soybean","soybean (Glycine max); Rate 125 g/ha, Preemergence",0
same,"Plant response rating, Soybean","soybean (Glycine max); Rate 250 g/ha, Postemergence",2
same,"Plant response rating, Soybean","soybean (Glycine max); Rate 250 g/ha, Preemergence",0
same,"Plant response rating, Soybean","soybean (Glycine max); Rate 500 g/ha, Postemergence",3
same,"Plant response rating, Soybean","soybean (Glycine max); Rate 500 g/ha, Preemergence",0
same,"Plant response rating, Sugarbeets",[6]; [11],0
same,Sugarbeets plant response rating,"[6]; Rate 62 g/ha, Postemergence",1
same,Sugarbeets plant response rating,"[6]; Rate 125 g/ha, Postemergence",2
same,"Plant response rating, Sugarbeets","[6]; Rate 125 g/ha, Preemergence",0
same,"Plant response rating, Sugarbeets","[6]; Rate 250 g/ha, Postemergence",6
same,"Plant response rating, Sugarbeets","[6]; Rate 250 g/ha, Preemergence",0
same,"Plant response rating, Sugarbeets","[6]; Rate 500 g/ha, Postemergence",7
same,"Plant response rating, Sugarbeets","[6]; Rate 500 g/ha, Preemergence",0
same,"Plant response rating, Crabgrass",[7]; [11],0
same,Crabgrass plant response rating,"[7]; Rate 62 g/ha, Postemergence",0
same,Crabgrass plant response rating,"[7]; Rate 125 g/ha, Postemergence",0
same,"Plant response rating, Crabgrass","[7]; Rate 125 g/ha, Preemergence",0
same,"Plant response rating, Crabgrass","[7]; Rate 250 g/ha, Postemergence",1
same,"Plant response rating, Crabgrass","[7]; Rate 250 g/ha, Preemergence",0
same,"Plant response rating, Crabgrass","[7]; Rate 500 g/ha, Postemergence",3
same,"Plant response rating, Crabgrass","[7]; Rate 500 g/ha, Preemergence",1
same,"Plant response rating, Wild oats",wild oat (Avena fatua); [11],0
same,Wild oats plant response rating,"wild oat (Avena fatua); Rate 62 g/ha, Postemergence",1
same,Wild oats plant response rating,"wild oat (Avena fatua); Rate 125 g/ha, Postemergence",1
same,"Plant response rating, Wild oats","wild oat (Avena fatua); Rate 125 g/ha, Preemergence",0
same,"Plant response rating, Wild oats","wild oat (Avena fatua); Rate 250 g/ha, Postemergence",1
same,"Plant response rating, Wild oats","wild oat (Avena fatua); Rate 250 g/ha, Preemergence",0
same,"Plant response rating, Wild oats","wild oat (Avena fatua); Rate 500 g/ha, Postemergence",1
same,"Plant response rating, Wild oats","wild oat (Avena fatua); Rate 500 g/ha, Preemergence",0
same,Barnyardgrass plant response rating,[8]; [12],0
same,Barnyardgrass plant response rating,[8]; [13],0
same,"Plant response rating, Barnyardgrass",[8]; Rate 250 g/ha,0
same,"Plant response rating, Barnyardgrass",[8]; Rate 500 g/ha,0
same,Rice plant response rating,rice (Oryza sativa); [12],0
same,Rice plant response rating,rice (Oryza sativa); [13],0
same,"Plant response rating, Rice",rice (Oryza sativa); Rate 250 g/ha,0
same,"Plant response rating, Rice",rice (Oryza sativa); Rate 500 g/ha,0
same,Ducksalad plant response rating,[9]; [12],0
same,Ducksalad plant response rating,[9]; [13],0
same,"Plant response rating, Ducksalad",[9]; Rate 250 g/ha,0
same,"Plant response rating, Ducksalad",[9]; Rate 500 g/ha,0
same,S. Flatsedge plant response rating,[10]; [12],0
same,S. Flatsedge plant response rating,[10]; [13],0
same,"Plant response rating, S. Flatsedge",[10]; Rate 250 g/ha,0
same,"Plant response rating, S. Flatsedge",[10]; Rate 500 g/ha,0
